Five molecules from EP1144624B1, “HUMAN AND MOUSE TREK-1 POTASSIUM CHANNEL PROTEIN AND THEIR USE” (CENTRE NATIONAL DE LA RECHERCHE SCIENTIFIQUE, priority 1999, dated 2000) can be followed below.

In one assay the test system is Mouse TREK-1. The settings on record: whole cell, voltage ramp from holding potential -80 mV, room temperature; 0.8 mM chloroform, 1 mM halothane, 2 mM isoflurane, 0.6 mM diethyl ether (Figs. 1-3). The method, then: (§1) As performed herein, COS cells were seeded at a density of 20,000 cells per 35 mm dish 24 hours prior to transfection. Cells were transfected by the DEAE dextran protocol (1 µg DNA per plate). Mouse TREK-1 (GenBank Accession No. U73488), human TASK (GenBank Accession No. AF006823) and mouse TRAAK (GenBank Accession No. AF056492) fragments were amplified by polymerase chain reaction (PCR) and subcloned into the pIRES-CD8 vector. Transfected cells were visualized 48 hours after transfection using the anti-CD8 antibody coated beads method. For whole cell and excised patch experiments, the internal solution was 150 mM KCl, 3 mM MgCl2, 5mM EGTA and 10 mM HEPES at pH 7.2 with KOH and the external medium contained 150 mM NaCl, 5 mM KCL, 3 mM MgCl2, 1 mM CaCl2, 10 mM HEPES at pH 7.4 with NaOH. Cells were continuously superfused with a microperfusion system during the time course of the experiments (0.1 ml/min) performed at room temperature. A RK300 patch clamp amplifier (Biologic, Grenoble, France) was used for whole cell as well as single channel recordings. Ionic currents were monitored and recorded continuously using a DAT recorder (Biologic, Grenoble, France). Subsequently, data were replayed and sampled using pClamp software. Data analysis were performed using clampfit (pClamp) for whole cell recording as well as Biopatch (Biologic) software for single channel recordings. Membrane capacitance was measured during a […] hyperpolarizing step from a holding potential of -80 mV.
(§2) General anesthetics were directly dissolved in saline solutions. All experiments were performed at room temperature (24°C). Solutions were prepared every 3 hours in gas-tight bottles as stock solutions (calculated concentrations of 5 10 mM). Serial dilutions were prepared just prior to the electrophysiological experiment. 2.5 ml of each experimental solution at the desired concentration was placed in a syringe connected to the experimental superfusion system. The electrophysiological measurements were performed within 45 minutes.
(§3) The actual concentrations of anesthetics were subsequently determined by means of a gas chromatography method (HP 6890 equipped with a DB624 column) using FID detection. Sampled (2.5 ml of solution) were collected prior to (t0) and after perfusion (t45) through the experimental setup. Solutions were collected using gas impermeable tubing and stored in sealed glass containers at 4°C for subsequent analysis. Samplings and measurements were performed in duplicate. […] In the dose effect curves, the threshold concentrations were estimated as concentrations producing an increase higher than 10% in current amplitude.

Another assay deals with human TASK. The settings on record: whole cell, voltage ramp from holding potential -80 mV, room temperature; 0.8 mM chloroform, 1 mM halothane, 2 mM isoflurane, 0.6 mM diethyl ether (Figs. 1-3). The method, then: as §1, §2, §3
For the next assay, the system named is mouse TRAAK. Briefly: Whole cell patch clamp of transfected COS cells expressing TRAAK. It is filed as cell-based. The settings on record: voltage ramp from holding potential -80 mV, room temperature, 0.8 mM chloroform, 1 mM halothane, 2 mM isoflurane, 0.6 mM diethyl ether (Figs. 1-3). The method, then: (§4) Subsequently, data were replayed and sampled using pClamp software.
General anesthetics were directly dissolved in saline solutions. All experiments were performed at room temperature (24°C). […] The electrophysiological measurements were performed within 45 minutes.
as §3
(In general: Patch clamp records ionic current or voltage across a cell membrane.)

In assay [1] the test system is COS cells expressing TREK-1. The settings on record: 0.8 mM chloroform; not in mock-transfected cells, n = 5.
Experimental: As performed herein, COS cells were seeded at a density of 20,000 cells per 35 mm dish 24 hours prior to transfection. Cells were transfected by the DEAE dextran protocol (1 µg DNA per plate). […] Transfected cells were visualized 48 hours after transfection using the anti-CD8 antibody coated beads method. For whole cell and excised patch experiments, the internal solution was 150 mM KCl, 3 mM MgCl2, 5mM EGTA and 10 mM HEPES at pH 7.2 with KOH and the external medium contained 150 mM NaCl, 5 mM KCL, 3 mM MgCl2, 1 mM CaCl2, 10 mM HEPES at pH 7.4 with NaOH. Cells were continuously superfused with a microperfusion system during the time course of the experiments (0.1 ml/min) performed at room temperature. A RK300 patch clamp amplifier (Biologic, Grenoble, France) was used for whole cell as well as single channel recordings. Ionic currents were monitored and recorded continuously using a DAT recorder (Biologic, Grenoble, France). Subsequently, data were replayed and sampled using pClamp software. […] Membrane capacitance was measured during a 10 V hyperpolarizing step from a holding potential of -80 mV. […]
General anesthetics were directly dissolved in saline solutions. […] Solutions were prepared every 3 hours in gas-tight bottles as stock solutions (calculated concentrations of 5 10 mM). […]
Another assay concerns human TREK-1 channel. Briefly: Whole cell patch clamp of transiently transfected COS cells expressing human TREK-1. It is filed as cell-based.
Excerpt: The functional properties of the human TREK-1 channel were studied on the basis of transfected COS cells temporarily expressing the protein. Like the murine channel, the human channel is selective for potassium and is activated by cis-unsaturated fatty acids, volatile anesthetics and by stretching of the plasma membrane. The currents are recordings in the whole-cell configuration of the patch-clamp technique (imposed potential gradient from -130 to +100 mV). The inverse potential of the currents follow the equilibrium potential of potassium when the extracellular concentration of potassium ions climbs from 5 to 155 mM. […] When a pressure of -66 mmHg is applied on the membrane, the TREK-1 currents are activated in a reversible manner.
as §4

As for `FC(F)OC(Cl)C(F)(F)F` (stereo not drawn) [Isoflurane, isoflurane], the “effect on TREK-1 K+ current” value with Mouse TREK-1 was “activated”. The “effect on TASK K+ current” value in the assay on human TASK is “activated”. Moreover, the “effect on TRAAK K+ current” value in the assay on mouse TRAAK is “without altering”.

Regarding `ClC(Cl)Cl` [chloroform], in the assay on Mouse TREK-1, the “effect on TREK-1 K+ current” value was “strongly and reversibly activated”. For the same molecule, the “effect on TASK K+ current” value with human TASK is recorded as “slightly depressed”. Besides, the “effect on TRAAK K+ current” value with mouse TRAAK was “did not effect”. Further, the “effect on membrane potential of COS cells expressing TREK-1” value in assay [1] is “reversibly and reproducibly hyperpolarized”.

On to `CCCCC/C=C\C/C=C\C/C=C\C/C=C\CCCC(=O)O` [arachidonic acid], for which the “effect on human TREK-1 currents” value in the assay on human TREK-1 channel (arachidonic acid 10 µM in the bath) was “induced activation”.

As to `FC(F)(F)C(Cl)Br` (stereo not drawn) [halothane], the “effect on TREK-1 K+ current” value with Mouse TREK-1 is “opened”. Also, in the assay on human TASK, the “effect on TASK K+ current” value is recorded as “opened”. For the same molecule, in the assay with mouse TRAAK, the “effect on TRAAK K+ current” value is recorded as “not TRAAK, were opened”. Besides, the “effect on human TREK-1 currents” value in the assay with human TREK-1 channel (concentrations employed in general anesthesia) is “induced activation”.

On to `CCOCC` [Diethyl ether, diethyl ether], for which, in the assay on Mouse TREK-1, the “effect on TREK-1 K+ current” value is reported as “opened”. Also, in the assay on human TASK, the “effect on TASK K+ current” value was “decreased”. Further, the “effect on TRAAK K+ current” value with mouse TRAAK is “did not affect”.
